Experiments:
Assay in all cases: relative viability (nuclei count vs DMSO), 5 days (fraction); higher = more cells survive
[1] = compound: COc1ccc(-c2ccc3c(N4CCOC[C@@H]4C)nc(N4CCOC[C@@H]4C)nc3n2)cc1CO [AZD8055] + O=C(c1cc(Cc2n[nH]c(=O)c3ccccc23)ccc1F)N1CCN(C(=O)C2CC2)CC1 [Olaparib] (partner 8 µM)
In short: (§1)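 One day after seeding in 1536-well plates, lung cancer cell lines were dosed by pin tool. Dosing was either single-drug or a fixed anchor-drug dose plus five library-drug doses (not always all listed) in √10 steps. After 5 days, nuclei were stained in one fix-and-stain step and counted on 4× images, and relative viability is the nuclei count of treated wells over that of vehicle wells, given as the median of duplicate plates.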

[2] = compound: COc1ccc(-c2ccc3c(N4CCOC[C@@H]4C)nc(N4CCOC[C@@H]4C)nc3n2)cc1CO [AZD8055] + NC(=O)Nc1cc(-c2cccc(F)c2)sc1C(=O)N[C@H]1CCCNC1 [AZD7762] (partner 0.2 µM)
In short: as §1

[3] = compound: COc1ccc(-c2ccc3c(N4CCOC[C@@H]4C)nc(N4CCOC[C@@H]4C)nc3n2)cc1CO [AZD8055] + CS(=O)(=O)CCNCc1ccc(-c2ccc3ncnc(Nc4ccc(OCc5cccc(F)c5)c(Cl)c4)c3c2)o1 [Lapatinib] (partner 2 µM)
In short: as §1

[4] = compound: COc1ccc(-c2ccc3c(N4CCOC[C@@H]4C)nc(N4CCOC[C@@H]4C)nc3n2)cc1CO [AZD8055] + Nc1ncn([C@H]2C[C@H](O)[C@@H](CO)O2)c(=O)n1 [Decitabine] (partner 2 µM)
In short: as §1

Row | Cell Line | relative viability ([1]; first compound 0.01 µM) | relative viability ([1]; first compound 0.03162 µM) | relative viability ([1]; first compound 0.1 µM) | relative viability ([1]; first compound 0.3162 µM) | relative viability ([1]; first compound 1 µM) | relative viability ([2]; first compound 0.01 µM) | relative viability ([2]; first compound 0.03162 µM) | relative viability ([2]; first compound 0.1 µM) | relative viability ([2]; first compound 0.3162 µM) | relative viability ([2]; first compound 1 µM) | relative viability ([3]; first compound 0.01 µM) | relative viability ([3]; first compound 0.03162 µM) | relative viability ([3]; first compound 0.1 µM) | relative viability ([3]; first compound 0.3162 µM) | relative viability ([3]; first compound 1 µM) | relative viability ([4]; first compound 0.01 µM) | relative viability ([4]; first compound 0.03162 µM) | relative viability ([4]; first compound 0.1 µM) | relative viability ([4]; first compound 0.3162 µM) | relative viability ([4]; first compound 1 µM)
1 | HCC-366 | 0.426 | 0.275 | 0.273 | 0.143 | 0.136 | 0.364 | 0.255 | 0.268 | 0.124 | 0.0821 | 1.12 | 0.93 | 0.864 | 0.27 | 0.2 | 0.392 | 0.233 | 0.281 | 0.144 | 0.14
2 | HCC-827 | 0.651 | 0.523 | 0.494 | 0.281 | 0.172 | 0.203 | 0.319 | 0.189 | 0.212 | 0.165 | 0.212 | 0.201 | 0.193 | 0.141 | 0.21 | 0.329 | 0.279 | 0.278 | 0.262 | 0.23
3 | HOP-62 | 0.756 | 0.501 | 0.45 | 0.5 | 0.184 | 0.677 | 0.418 | 0.512 | 0.167 | 0.111 | 1.14 | 0.908 | 0.962 | 0.369 | 0.316 | 0.193 | 0.213 | 0.239 | 0.215 | 0.194
4 | IA-LM | 0.8 | 0.823 | 0.551 | 0.302 | 0.114 | – | – | – | – | – | 0.802 | 0.319 | 0.216 | 0.132 | 0.112 | – | – | – | – | –
5 | LCLC-103H | 0.824 | 0.634 | 0.631 | 0.47 | 0.396 | 0.739 | 0.608 | 0.592 | 0.343 | 0.371 | – | – | – | – | – | 0.767 | 0.616 | 0.532 | 0.417 | 0.374
6 | NCI-H441 | 0.691 | 0.528 | 0.359 | 0.32 | 0.249 | 1.24 | 1.14 | 0.837 | 0.562 | 0.382 | – | – | – | – | – | 0.284 | 0.233 | 0.225 | 0.206 | 0.246
7 | NCI-H520 | 0.247 | 0.205 | 0.132 | 0.137 | 0.132 | – | – | – | – | – | 0.716 | 0.344 | 0.265 | 0.142 | 0.167 | 0.486 | 0.242 | 0.229 | 0.176 | 0.165
8 | NCI-H522 | 0.603 | 0.686 | 0.543 | 0.387 | 0.385 | 0.847 | 0.799 | 0.647 | 0.532 | 0.569 | – | – | – | – | – | 0.737 | 0.591 | 0.619 | 0.527 | 0.462
9 | NCI-H661 | 0.785 | 0.802 | 0.691 | 0.447 | 0.378 | – | – | – | – | – | 0.434 | 0.43 | 0.414 | 0.307 | 0.256 | 0.502 | 0.482 | 0.449 | 0.359 | 0.331
10 | NCI-H1563 | – | – | – | – | – | – | – | – | – | – | 0.881 | 0.836 | 0.756 | 0.644 | 0.751 | – | – | – | – | –
11 | NCI-H1648 | 0.658 | 0.739 | 0.561 | 0.239 | 0.287 | 0.708 | 0.804 | 0.639 | 0.413 | 0.261 | – | – | – | – | – | 0.422 | 0.504 | 0.42 | 0.277 | 0.261
12 | NCI-H1650 | 0.985 | 0.865 | 0.726 | 0.417 | 0.472 | – | – | – | – | – | 0.767 | 0.731 | 0.71 | 0.452 | 0.44 | 0.535 | 0.432 | 0.439 | 0.384 | 0.358
13 | NCI-H1703 | 0.751 | 0.279 | 0.326 | 0.232 | 0.182 | 0.127 | 0.125 | 0.115 | 0.115 | 0.095 | 0.798 | 0.726 | 0.879 | 0.427 | 0.313 | – | – | – | – | –
14 | NCI-H2009 | 0.677 | 0.861 | 0.634 | 0.344 | 0.254 | – | – | – | – | – | 1.15 | 0.74 | 0.919 | 0.396 | 0.316 | 0.376 | 0.451 | 0.376 | 0.305 | 0.268
15 | NCI-H2023 | 0.434 | 0.402 | 0.224 | 0.148 | 0.142 | – | – | – | – | – | 0.971 | 0.611 | 0.361 | 0.148 | 0.132 | 0.243 | 0.161 | 0.175 | 0.129 | 0.118
16 | NCI-H2228 | 0.763 | 0.432 | 0.217 | 0.187 | 0.228 | – | – | – | – | – | 1.01 | 0.709 | 0.338 | 0.219 | 0.261 | – | – | – | – | –
17 | NCI-H2342 | 0.376 | 0.439 | 0.362 | 0.309 | 0.289 | 0.422 | 0.459 | 0.308 | 0.376 | 0.43 | – | – | – | – | – | 0.741 | 0.653 | 0.668 | 0.668 | 0.504
18 | SK-LU-1 | 0.442 | 0.412 | 0.345 | 0.305 | 0.254 | – | – | – | – | – | 0.866 | 0.761 | 0.487 | 0.376 | 0.332 | 0.64 | 0.547 | 0.568 | 0.422 | 0.343
19 | SK-MES-1 | 0.748 | 0.484 | 0.328 | 0.208 | 0.262 | – | – | – | – | – | 0.444 | 0.387 | 0.371 | 0.274 | 0.318 | 0.395 | 0.34 | 0.333 | 0.269 | 0.246
20 | SW 900 | 0.812 | 0.952 | 0.719 | 0.48 | 0.502 | 0.538 | 1.01 | 0.54 | 0.324 | 0.268 | – | – | – | – | – | 0.459 | 0.519 | 0.472 | 0.492 | 0.47
21 | SW 1573 | 0.555 | 0.417 | 0.325 | 0.17 | 0.16 | – | – | – | – | – | 1.25 | 0.829 | 1.04 | 0.519 | 0.27 | 0.496 | 0.316 | 0.38 | 0.195 | 0.189
22 | UMC-11 | 0.376 | 0.323 | 0.335 | 0.223 | 0.269 | – | – | – | – | – | 0.832 | 0.573 | 0.578 | 0.276 | 0.282 | 0.575 | 0.472 | 0.492 | 0.317 | 0.364

Reference: the supplement of paper PMC10307832
